What was measured:
[1] = target: T1, Fructose-1,6-bisphosphatase 1 (Homo sapiens, UniProt P09467); experiment: Inhibition of wild-type full-length human liver FBPase expressed in Escherichia coli BL21 (DE3) using FBP as substrate by malachite green dye based assay; type: tissue-based
T1 sequence (P09467 whole entry): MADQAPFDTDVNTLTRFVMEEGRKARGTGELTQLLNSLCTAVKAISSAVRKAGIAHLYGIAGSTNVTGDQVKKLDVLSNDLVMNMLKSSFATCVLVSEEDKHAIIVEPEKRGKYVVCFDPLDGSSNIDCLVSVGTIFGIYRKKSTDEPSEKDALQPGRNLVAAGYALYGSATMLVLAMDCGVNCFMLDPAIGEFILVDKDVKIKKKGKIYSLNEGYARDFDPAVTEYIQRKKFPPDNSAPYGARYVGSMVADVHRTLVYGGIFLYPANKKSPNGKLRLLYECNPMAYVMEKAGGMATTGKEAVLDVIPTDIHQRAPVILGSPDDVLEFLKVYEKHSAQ

HepG2 = experiment: Cytotoxicity against human HepG2 cells assessed as reduction in cell viability measured after 48 hrs by cell counting kit-8 assay; type: functional, cell-based; conditions: HepG2, 48 h
Mus musculus [2] = experiment: Glucose lowering activity in 12 hrs fasting normoglycemic ICR mouse assessed as reduction in blood glucose level at 50 mg/kg, ip measured upto 8 hrs by glucometer; type: functional; conditions: time hrs <=8
Mus musculus [3] = experiment: Glucose lowering activity in 12 hrs fasting normoglycemic ICR mouse assessed as time for maximum blood glucose reduction at 25 to 50 mg/kg, ip by glucometer; type: functional; conditions: dose 25-50 mg/kg

| IC50 [1] [µM] | SMILES | further results |
| --- | --- | --- |
| > 10 | S=C(SSC(=S)n1c2ccccc2c2ccccc21)n1c2ccccc2c2ccccc21 | – |
| 0.6 | Clc1ccccc1SSc1nccs1 | IC50 (HepG2): 64.5 µM; inhibition in vivo at 50 mg/kg (Mus musculus [2]): 50%; Time (Mus musculus [3]): 6 h |
| > 10 | CCCN(CCC)C(=S)SSC(=S)N(CCC)CCC | – |
| > 10 | c1csc(SSC2CCCC2)n1 | – |
| > 10 | S=C(SSC(=S)n1ncc2ccccc21)n1ncc2ccccc21 | – |
| 5.39 | CCSSc1nccs1 | – |
| > 10 | Cc1cccn1C(=S)SSC(=S)n1cccc1C | – |
| 1.29 | Clc1ccc(SSc2nncs2)cc1 | – |
| 1.94 | Nc1nnc(SSc2ccc(Cl)cc2)s1 | – |
| > 10 | CN(C(=S)SSC(=S)N(C)c1ccc(-c2ccccc2)cc1)c1ccc(-c2ccccc2)cc1 | – |
| 7.6 | Nc1ccc(SSc2nccs2)cc1 | – |
| > 10 | Cn1ccnc1SSc1nccn1C | – |
| 3.32 | Clc1nnc(SSc2nnc(Cl)s2)s1 | – |
| > 10 | S=C(SSC(=S)N1CCCc2ccccc21)N1CCCc2ccccc21 | – |
| > 10 | CCN(CC)C(=S)SCSC(=S)N(CC)CC | – |
| > 10 | CN(Cc1ccccc1)C(=S)SSC(=S)N(C)Cc1ccccc1 | – |
| > 10 | CCN(CC)C(=O)CSC(=S)N(CC)CC [(DIETHYLCARBAMOYL)METHYLENE DIETHYLCARBAMODITHIOATE] | – |
| > 10 | CCN(CC)C(=S)CSC(=S)N(CC)CC [(DIETHYLTHIOCARBAMOYL)METHYLENE DIETHYLCARBAMODITHIOATE] | – |
| 0.31 | c1ccc2sc(SSc3nc4ccccc4s3)nc2c1 [BENZOTHIAZYL DISULFIDE] | IC50 (HepG2): > 100 µM; inhibition in vivo at 50 mg/kg (Mus musculus [2]): 54%; Time (Mus musculus [3]): 6 h |

| SMILES | IC50 [1] [µM] | further results |
| --- | --- | --- |
| CC(C)N(C(=S)SSC(=S)N(C(C)C)C(C)C)C(C)C | > 10 | – |
| O=C(O)C1CCN(C(=S)SSC(=S)N2CCC(C(=O)O)CC2)CC1 | > 10 | – |
| S=C(SSC(=S)N1CCC1)N1CCC1 | > 10 | – |
| CN(C(=S)SSC(=S)N(C)c1ccccc1)c1ccccc1 | > 10 | – |
| CN1CCN(C(=S)SSC(=S)N2CCN(C)CC2)CC1 | > 10 | – |
| S=C(SSC(=S)N1CCc2ccccc2C1)N1CCc2ccccc2C1 | > 10 | – |
| S=C(SSC(=S)N1CCCCC1)N1CCCCC1 [BIS(PIPERIDINYLTHIOCARBONYL)DISULFIDE] | 8.78 | – |
| S=C(SSC(=S)N1CCCC1)N1CCCC1 [BIS(PYRROLIDINYLTHIOCARBONYL)DISULFIDE] | 2.28 | – |
| CCN(CC)C(=S)SC(=S)N(CC)CC [SULFIRAM] | > 10 | – |
| CN(C)C(=S)SSC(=S)N(C)C [THIRAM] | 2.29 | – |

— ChEMBL document CHEMBL4706520, “Development of disulfide-derived fructose-1,6-bisphosphatase (FBPase) covalent inhibitors for the treatment of type 2 diabetes” (Eur J Med Chem, 2020)
